Results as given in patent US11286243B2 (GLOBAL BLOOD THERAPEUTICS, INC., priority 2018, dated 2022).

Target: T1, human ferroportin (Homo sapiens, UniProt Q9NP59)
T1 construct: luciferase reporter (probably NanoLuc: read with the Nano-Glo Luciferase Assay System); expressed in transfected cells; host or cells: CHO cells, stably transfected, doxycycline-inducible expression
T1 sequence (Q9NP59 1-571): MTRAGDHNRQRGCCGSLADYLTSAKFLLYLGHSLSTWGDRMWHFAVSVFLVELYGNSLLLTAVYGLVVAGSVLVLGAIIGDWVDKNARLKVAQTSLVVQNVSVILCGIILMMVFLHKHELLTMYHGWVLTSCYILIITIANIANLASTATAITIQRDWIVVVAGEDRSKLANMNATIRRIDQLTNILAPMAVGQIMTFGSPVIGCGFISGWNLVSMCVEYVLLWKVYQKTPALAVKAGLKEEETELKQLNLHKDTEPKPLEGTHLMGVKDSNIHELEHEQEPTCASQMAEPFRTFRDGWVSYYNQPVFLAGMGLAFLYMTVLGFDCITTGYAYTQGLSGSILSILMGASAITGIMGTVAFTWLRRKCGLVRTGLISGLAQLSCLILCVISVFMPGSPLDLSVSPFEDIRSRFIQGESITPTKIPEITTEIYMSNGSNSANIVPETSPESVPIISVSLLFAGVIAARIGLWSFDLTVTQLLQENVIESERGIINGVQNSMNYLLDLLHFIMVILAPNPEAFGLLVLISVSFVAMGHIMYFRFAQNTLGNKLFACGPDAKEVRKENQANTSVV
Assay: In-vitro ferroportin internalization assay (luciferase reporter)
Assay type: cell-based
Conditions: average pEC50; stably-transfected CHO cell line expressing human ferroportin tagged to a luciferase reporter; 6 h incubation with test compounds
Method: The protocol for this assay is generally as described in WO2018/128828, incorporated herein by reference in its entirety. Functional internalization of ferroportin protein was measured using a stably-transfected CHO cell line expressing the human ferroportin tagged to a luciferase reporter. Cells were plated for 24 h in the presence of ferric ammonium citrate (FAC). Ferroportin protein expression was induced with doxycycline for 24 h. The next day, the compounds were added. Test compounds were dissolved in DMSO. Cells were incubated with the test compounds for 6 h, and subsequently luciferase activity was measured using the Nano-Glo Luciferase Assay System and Glomax (Promega, Madison, Wis.).
The average pEC50 was determined for the test compounds.

Row | pEC50 | SMILES
1 | 6.3 | C[C@@H](Cc1nc2c(NCc3ncccc3F)ncnc2s1)NCCc1nc2ccccc2[nH]1 [Compound 28, 2-[(2S)-2-{[2-(1H-1,3-benzodiazol-2-yl)ethyl]amino}propyl]-N-[(3-fluoropyridin-2-yl)methyl]-[1,3]thiazolo[5,4-d]pyrimidin-7-amine]
2 | 5.2 | CC(=O)NOc1nc(NCc2ncccc2F)c2nc(CCNCCc3nc4ccccc4[nH]3)sc2n1 [Compound 29, N-{[2-(2-{[2-(1H-1,3-benzodiazol-2-yl)ethyl]amino}ethyl)-7-{[(3-fluoropyridin-2-yl)methyl]amino}-[1,3]thiazolo[5,4-d]pyrimidin-5-yl]oxy}acetamide]
3 | 7.3 | Fc1cccnc1CNc1ncnc2sc(C(F)CNCCc3nc4ccccc4[nH]3)nc12 (centres unmarked) [Compound 30, 2-(2-{[2-(1H-1,3-benzodiazol-2-yl)ethyl]amino}-1-fluoroethyl)-N-[(3-fluoropyridin-2-yl)methyl]-[1,3]thiazolo[5,4-d]pyrimidin-7-amine]
4 | 5.6 | Cc1nc(NCc2ncccc2F)c2nc(CCNCCc3nc4ccccc4[nH]3)sc2n1 [Compound 31, 2-(2-{[2-(1H-1,3-benzodiazol-2-yl)ethyl]amino}ethyl)-N-[(3-fluoropyridin-2-yl)methyl]-5-methyl-[1,3]thiazolo[5,4-d]pyrimidin-7-amine]
5 | 6.9 | [N-]=[N+]=Nc1cccnc1CNc1ncnc2sc(CCNCCc3nc4cc(I)ccc4[nH]3)nc12 [Compound 32, N-[(3-azidopyridin-2-yl)methyl]-2-(2-{[2-(5-iodo-1H-1,3-benzodiazol-2-yl)ethyl]amino}ethyl)-[1,3]thiazolo[5,4-d]pyrimidin-7-amine]
6 | 6.2 | Fc1cccnc1CNc1ncnc2sc(CCNCCc3nc4ncccc4[nH]3)nc12 [Compound 33, N-[(3-fluoropyridin-2-yl)methyl]-2-{2-[(2-{1H-imidazo[4,5-b]pyridin-2-yl}ethyl)amino]ethyl}-[1,3]thiazolo[5,4-d]pyrimidin-7-amine]
7 | 5.1 | O=c1c2ccccc2[nH]n1CCNCCc1nc2c(NCc3ncccc3F)ncnc2s1 [Compound 34, 2-(2-{[2-(7-{[(3-fluoropyridin-2-yl)methyl]amino}-[1,3]thiazolo[5,4-d]pyrimidin-2-yl)ethyl]amino}ethyl)-2,3-dihydro-1H-indazol-3-one]
8 | 7.1 | Fc1cccnc1CNc1ncnc2sc(CCNCCc3ncc(-c4ccccc4)[nH]3)nc12 [Compound 35, N-[(3-fluoropyridin-2-yl)methyl]-2-(2-{[2-(5-phenyl-1H-imidazol-2-yl)ethyl]amino}ethyl)-[1,3]thiazolo[5,4-d]pyrimidin-7-amine]
9 | 6.4 | Oc1nc(NCc2ncccc2F)c2nc(CCNCCc3nc4ccccc4[nH]3)oc2n1 [Compound 36, 2-(2-{[2-(1H-1,3-benzodiazol-2-yl)ethyl]amino}ethyl)-7-{[(3-fluoropyridin-2-yl)methyl]amino}-[1,3]oxazolo[5,4-d]pyrimidin-5-ol]
10 | 5.6 | Fc1cccnc1CNc1ncnc2sc(CCNCCc3nc4cnccc4[nH]3)nc12 [Compound 37, N-[(3-fluoropyridin-2-yl)methyl]-2-{2-[(2-{1H-imidazo[4,5-c]pyridin-2-yl}ethyl)amino]ethyl}-[1,3]thiazolo[5,4-d]pyrimidin-7-amine]
11 | 4.9 | CC(NCCc1nc2c(NCc3ncccc3F)ncnc2s1)c1ccccc1O (centres unmarked) [Compound 38, 2-(1-{[2-(7-{[(3-fluoropyridin-2-yl)methyl]amino}-[1,3]thiazolo[5,4-d]pyrimidin-2-yl)ethyl]amino}ethyl)phenol]
12 | 6.9 | C#CCCC1(CCC(=O)NCc2ccc3[nH]c(CCNCCc4nc5c(NCc6ncccc6F)ncnc5s4)nc3c2)N=N1 [Compound 39, 3-[3-(but-3-yn-1-yl)-3H-diazirin-3-yl]-N-{[2-(2-{[2-(7-{[(3-fluoropyridin-2-yl)methyl]amino}-[1,3]thiazolo[5,4-d]pyrimidin-2-yl)ethyl]amino}ethyl)-1H-1,3-benzodiazol-5-yl]methyl}propanamide]
13 | 6.2 | CC(Cc1nc2ccccc2[nH]1)NCCc1nc2c(NCc3ncccc3F)ncnc2s1 (centres unmarked) [Compound 40, 2-(2-{[1-(1H-1,3-benzodiazol-2-yl)propan-2-yl]amino}ethyl)-N-[(3-fluoropyridin-2-yl)methyl]-[1,3]thiazolo[5,4-d]pyrimidin-7-amine]
14 | 7.2 | CC(CNCCc1nc2c(NCc3ncccc3F)ncnc2s1)c1nc2ccccc2[nH]1 (centres unmarked) [Compound 41, 2-(2-{[2-(1H-1,3-benzodiazol-2-yl)propyl]amino}ethyl)-N-[(3-fluoropyridin-2-yl)methyl]-[1,3]thiazolo[5,4-d]pyrimidin-7-amine]
15 | 7.3 | Fc1cccnc1CNc1ncnc2sc(CCNCCc3ncc[nH]3)nc12 [Compound 42, N-[(3-fluoropyridin-2-yl)methyl]-2-(2-{[2-(1H-imidazol-2-yl)ethyl]amino}ethyl)-[1,3]thiazolo[5,4-d]pyrimidin-7-amine]
16 | 8.4 | Fc1cccnc1CNc1ncnc2sc(CCNCCc3ncc(Cc4ccccc4)[nH]3)nc12 [Compound 43, 2-(2-{[2-(5-benzyl-1H-imidazol-2-yl)ethyl]amino}ethyl)-N-[(3-fluoropyridin-2-yl)methyl]-[1,3]thiazolo[5,4-d]pyrimidin-7-amine]
17 | 4.9 | Oc1ccccc1CCNCCc1nc2c(NCc3ncccc3F)ncnc2s1 [Compound 44, 2-(2-{[2-(7-{[(3-fluoropyridin-2-yl)methyl]amino}-[1,3]thiazolo[5,4-d]pyrimidin-2-yl)ethyl]amino}ethyl)phenol]
18 | 6.4 | Fc1cccnc1CNc1ncnc2sc(CCNCC(F)c3nc4ccccc4[nH]3)nc12 (centres unmarked) [Compound 45, 2-(2-{[2-(1H-1,3-benzodiazol-2-yl)-2-fluoroethyl]amino}ethyl)-N-[(3-fluoropyridin-2-yl)methyl]-[1,3]thiazolo[5,4-d]pyrimidin-7-amine]
19 | 7.1 | Cc1cc2nc(CCNCCc3nc4c(NCc5ncccc5F)ncnc4s3)[nH]c2cc1C [Compound 46, 2-(2-{[2-(5,6-dimethyl-1H-1,3-benzodiazol-2-yl)ethyl]amino}ethyl)-N-[(3-fluoropyridin-2-yl)methyl]-[1,3]thiazolo[5,4-d]pyrimidin-7-amine]
20 | 5.8 | O=C(CCC1(CCc2cn(CCCNC(=O)c3ccc4c(c3)C3(OC4=O)c4ccc(O)cc4Oc4cc(O)ccc43)nn2)N=N1)Nc1ccc2[nH]c(CCNCCc3nc4c(NCc5ncccc5F)ncnc4s3)nc2c1 [Compound 47, N-[3-(4-{2-[3-(2-{[2-(2-{[2-(7-{[(3-fluoropyridin-2-yl)methyl]amino}-[1,3]thiazolo[5,4-d]pyrimidin-2-yl)ethyl]amino}ethyl)-1H-1,3-benzodiazol-5-yl]carbamoyl}ethyl)-3H-diazirin-3-yl]ethyl}-1H-1,2,3-triazol-1-yl)propyl]-3′,6′-dihydroxy-3-oxo-3H-spiro[2-benzofuran-1,9′-xanthene]-6-carboxamide]
21 | 7 | Fc1cccnc1CNc1nccc2oc(CCNCCc3ncc(-c4ccccc4)[nH]3)nc12 [Compound 48, N-[(3-fluoropyridin-2-yl)methyl]-2-(2-{[2-(5-phenyl-1H-imidazol-2-yl)ethyl]amino}ethyl)-[1,3]oxazolo[4,5-c]pyridin-4-amine]
22 | 6.9 | Fc1cccnc1CNc1ncnc2sc(CCNCc3nc(-c4ccccc4)c[nH]3)nc12 [Compound 49, N-[(3-fluoropyridin-2-yl)methyl]-2-(2-{[(4-phenyl-1H-imidazol-2-yl)methyl]amino}ethyl)-[1,3]thiazolo[5,4-d]pyrimidin-7-amine]
23 | 5.1 | OC(CNCCc1nc2c(NCc3ncccc3F)ncnc2s1)c1nc2ccccc2[nH]1 (centres unmarked) [Compound 50, 1-(1H-1,3-benzodiazol-2-yl)-2-{[2-(7-{[(3-fluoropyridin-2-yl)methyl]amino}-[1,3]thiazolo[5,4-d]pyrimidin-2-yl)ethyl]amino}ethan-1-ol]
24 | 8.2 | Fc1cccnc1CNc1ncnc2sc(CCNCCc3ncc(C4CC4)[nH]3)nc12 [Compound 51, 2-(2-{[2-(5-cyclopropyl-1H-imidazol-2-yl)ethyl]amino}ethyl)-N-[(3-fluoropyridin-2-yl)methyl]-[1,3]thiazolo[5,4-d]pyrimidin-7-amine]
25 | 6.6 | C[C@H](CNCCc1nc2c(NCc3ncccc3F)ncnc2s1)c1nc2ccccc2[nH]1 [Compound 52, 2-(2-{[(2R)-2-(1H-1,3-benzodiazol-2-yl)propyl]amino}ethyl)-N-[(3-fluoropyridin-2-yl)methyl]-[1,3]thiazolo[5,4-d]pyrimidin-7-amine]
26 | 7.3 | C[C@@H](CNCCc1nc2c(NCc3ncccc3F)ncnc2s1)c1nc2ccccc2[nH]1 [Compound 53, 2-(2-{[(2S)-2-(1H-1,3-benzodiazol-2-yl)propyl]amino}ethyl)-N-[(3-fluoropyridin-2-yl)methyl]-[1,3]thiazolo[5,4-d]pyrimidin-7-amine]
